Experimental data as given in patent US20180105492A1, “COMPOUNDS DERIVED FROM 3-ALKYLAMINE-1H-INDOLYL ACRYLATE AND THEIR USE IN THE TREATMENT OF NEURODEGENERATIVE DISEASES” (FUNDACION PARA LA INVESTIGACION BIOMEDICA DEL HOSPITAL …, priority 2014, published 2018).

What was measured:
Type in all cases: cell-based
[1] = system: Nrf2 transcription factor (Nrf2-ARE); assay: Nrf2-ARE induction, luciferase activity in AREc32 (MCF7 cells stably transfected with ARE-LUC); conditions: Homo sapiens, 24 h, basal = 1, read-out: Relative Luciferase activity (response versus basal)
Protocol: For the study of Nrf2 transcription factor, the cellular line AREC32 was used, which is characterized for being stably transfected with the reporter gene of Luciferase linked to the ARE sequence. In the presence electrophilic compounds or oxidative stress, Nrf2 factor binds to ARE sequences, activating luciferase expression and producing a proportional quantity of luciferase. The AREc32 cells were cultured in DMEM media with glutamax, supplemented with 10% fetal bovine serum (FBS), 1% penicillin-streptomycin and 1.6% geneticine (G418) (obtained from GIBCO, Madrid, Spain). Cells were cultured in 75 cm flasks with 11 mL of specific media, incubated at 37° C. and 5% of CO2. Cells were passed every 4-6 days (1:4), whenever the confluence reached 80%. For the experiments, cells were cultured in transparent surface 96 well plates at a density of […] with 100 μL/well. After 24 h in culture, cells were treated with the compounds at different concentrations (1, 10, 30 and 60 μM) during 24 h at 37° C. and 5% CO2. In every experiment it was also included a basal variable, a variable with 10 μM tert-butyl hydroquinone (TBHQ) (positive control) and the variables of the study in a final volume of 100 μL. After an incubation of 24 h with the compounds, luciferase activity was measured by bioluminescence using the commercial kit “Luciferase assay system” (Promega E1500). For that, treatments were removed and cells were washed with 100 μL of PBS 0.1 M. After washing, 20 μL of “lysis buffer” reactive was added to each well. 10 minutes later, luminescence was measured using the multi-well reader FluoStar optima (BMG labtech).
Luminescence was measured in arbitrary units and is directly proportional to luciferase quantity in the wells, which is also directly proportional to Nrf2 transcription factor induction by the specific compound at the established concentration. Measurements were made in duplicate and values were normalized to the basal luminescence value, considered as 1.
The results of Nrf2 induction obtained for the compounds 1 to 16 are shown in Table 1 and are expressed as induction, considering 1 the non-treated cells.

[2] = system: SH-SY5Y cells; assay: Neuroprotection against rotenone/oligomycin A, pre-incubation model, MTT; conditions: Homo sapiens, compound 1 μM pre-incubation 24 h, then Rot/Olig (30/10 μM); for viability at 1 µM: read-out: % Survival
Protocol: (§1) SH-SY5Y cells [ECACC 94030304], in 5 to 16 passage after defreezing were maintained in Eagle media modified by Dulbecco (DMEM) containing 15 non-essential amino acids and supplemented with 10% fetal bovine serum, 1 mM glutamine, 50 units/mL penicillin/streptomycin (obtained from GIBCO, Madrid, Spain). Cells were seeded in flasks containing supplemented media and were maintained in an incubator at 37° C. and 5% CO2. 1:4 passes were performed twice per week. For the experiments, cells were seeded in 24 well-plates at a density of 2×10^5 cells/well, or in 96 well-plates at a density of 8×10^4 cells/well. For cytotoxicity experiments, cells were treated with the compounds before confluence with DMEM media supplemented with fetal bovine serum 1%.
(§2) In order to assess cellular viability, we measured the metabolic reduction of 3-(4,5-Dimethylthiazol-2-yl)-2,5 diphenyltetrazolium bromide (MTT). MTT is an indirect assay to measure cellular viability. It is a colorimetric method based on the reduction of 3-(4,5-Dimethylthiazol-2-yl)-2,5 diphenyltetrazolium. This process is performed by the mitochondrial enzyme succinate-dehydrogenase present in metabolic active cells. Thus, the water-soluble yellow MTT (tetrazolium salt) is transformed into a insoluble purple compound (formazan). Quantity of living cells is directly proportional to the quantity of formazan (Mosmann, 1983, J Immunol Methods, 65: 55-63). […] Therefore, with this assay we can measure cellular surviving and proliferation and also, we can determine the cytotoxicity of potential neuroprotective compounds. In order to assess cellular viability in SH-SY5Y cell line, we added 30 μl/well of MTT (5 mg/mL) and after 2 h, medium was carefully removed to avoid losing the formazan and was diluted in 300 μL of DMSO. Afterwards, samples were transferred to a 96 well-plate and the absorbance was measured at 570 nm using a absorbance/fluorescence reader FluoStar optima®. Every MTT assay was performed in triplicates. Absorbance values obtained with the toxic alone were subtracted to the absorbance values obtained in basal conditions (without treatment). That result was considered as the 100% of cell death and the values obtained with the compounds in the presence of the toxic stimulus were normalized as percentages of that value. For determining the surviving percentage, those percentages of cell death were subtracted to 100.
(§3) Neuroprotection elicited by the compounds of the invention 1-16: The activation of Nrf2-ARE pathway by different compounds exerts neuroprotective effects against toxic models based on oxidative stress via the expression of cytoprotective genes. […] We evaluated the neuroprotective potential of the compounds using the human neuroblastoma cell line using the following cytotoxicity models: 1) oxidative stress induced by rotenone+oligomycin, both blockers of the electron transport chain as previously described (Halliwell, 1992, J Neurochem, 59: 1609-23, Newhouse y col., 2004, Toxicol Sci, 79: 137-46), and 2) cytotoxicity induced by the electrophilic compound Menadione. This compound produces oxidative stress after being metabolized by microsomal enzymes in the cell which produces hydroxyl radical and oxygen reactive species. As a consequence, there is a depolarization of mitochondrial membrane generating a release of apoptotic factors such as cytochrome c, and activating the caspase cascade (Loor y col., 2010, Free Radic Biol Med, 49: 1925-36, Chuang y col., 2002, Cancer Res, 62: 6246-54). Caspase 3 activation can produce the lysis of proteins and induce DNA fragmentation, leading to cell death (Gerasimenko y col., 2002, J Cell Sci, 115: 485-97).
For this study we propose a protocol in which the cells are pre-incubated with each of the derivatives at 1 μM for 24 h. After the pre-incubation period, the medium was removed and replaced by culture medium with the rotenone/oligomycin-A (30 μM and 10 μM, respectively) toxic mixture. […]

[3] = system: SH-SY5Y cells; assay: Neuroprotection against oxidative stress induced by menadione, pre- and co-incubation, MTT; conditions: Homo sapiens, 24 h, compound 1 μM pre- and co-incubation, Menadione (8 mM); for viability at 1 µM: read-out: % Survival
Protocol: as §1, §2, §3
To further confirm the neuroprotective capacity in another model of oxidative stress, menadione was selected as toxic stimulus. […]

Structure (SMILES) | fold induction at 10 µM [1] | fold induction at 30 µM [1] | fold induction at 60 µM [1] | percent protection against toxin-induced cell death at 1 µM [2] [%] | viability at 1 µM [2] [%] | % protection against menadione toxicity at 1 µM [3] [%] | viability at 1 µM [3] [%]
CC(=O)NCCc1c[nH]c2ccc(OC(=O)/C=C/c3ccc(F)cc3)cc12 [Compound 9, 3-(2-acetamidoethyl)-1H-indol-5-yl (E)-3-(4-fluorophenyl)acrylate] | 1.92 ± 0.2 | 2.27 ± 0.2 | 4.21 ± 0.6 | 21.5 | 67.4 ± 2.13 | 29.6 | 71.6 ± 3.74
CC(=O)NCCc1c[nH]c2ccc(OC(=O)/C=C/c3ccc([N+](=O)[O-])cc3)cc12 [Compound 16, 3-(2-acetamidoethyl)-1H-indol-5-yl (E)-3-(4-nitrophenyl)acrylate] | 1.69 ± 0.1 | 2.41 ± 0.1 | 3.19 ± 0.1 | 23 | 68.5 ± 2.88 | 53.6 | 84.3 ± 2.15
CC(=O)NCCc1c[nH]c2ccc(OC(=O)/C=C/c3ccccc3)cc12 [Compound 2, 3-(2-acetamidoethyl)-1H-indol-5-yl cinnamate] | 1.63 ± 0.2 | 1.78 ± 0.1 | 2.54 ± 0.3 | 34.7 | 72.7 ± 3.59 | 32.5 | 74 ± 3.18
CC(=O)NCCc1c[nH]c2ccc(OC(=O)/C=C/c3ccc(C(F)(F)F)cc3)cc12 [Compound 15, 3-(2-acetamidoethyl)-1H-indol-5-yl (E)-3-(4-(trifluoromethyl)phenyl)acrylate] | 2.34 ± 0.2 | 4.99 ± 0.5 | 28.9 ± 2.9 | 37.5 | 73.4 ± 3.31 | 31.6 | 73.2 ± 3.43
CC(=O)NCCc1c[nH]c2ccc(OC(=O)/C=C/c3ccc(O)cc3)cc12 [Compound 7, 3-(2-acetamidoethyl)-1H-indol-5-yl (E)-3-(4-hydroxyphenyl)acrylate] | 0.95 ± 0.1 | 1.09 ± 0.1 | 1.57 ± 0.1 | 32.5 | 71.5 ± 4.92 | 61.8 | 86.8 ± 3.24
CC(=O)NCCc1c[nH]c2ccc(OC(=O)/C=C/c3ccccc3C(F)(F)F)cc12 [Compound 13, 3-(2-acetamidoethyl)-1H-indol-5-yl (E)-3-(2-(trifluoromethyl)phenyl)acrylate] | 1.38 ± 0.1 | 1.79 ± 0.1 | 2.55 ± 0.2 | 22.1 | 67 ± 3.01 | 36.2 | 74.9 ± 2.19
CC(=O)NCCc1c[nH]c2ccc(OC(=O)/C=C/c3ccc(Cl)cc3)cc12 [Compound 11, 3-(2-acetamidoethyl)-1H-indol-5-yl (E)-3-(4-chlorophenyl)acrylate] | 1.18 ± 0.1 | 1.59 ± 0.2 | 3.55 ± 0.9 | 33.5 | 73.2 ± 3.12 | 57 | 85.7 ± 2.93
COc1ccc(/C=C/C(=O)Oc2ccc3[nH]cc(CCNC(C)=O)c3c2)cc1 [Compound 6, 3-(2-acetamidoethyl)-1H-indol-5-yl (E)-3-(4-methoxyphenyl)acrylate] | 2.02 ± 0.2 | 3.4 ± 0.3 | 4.62 ± 0.4 | 29.8 | 70 ± 3.04 | 35.8 | 74.7 ± 2.91
COc1ccc2[nH]cc(CCNC(C)=O)c2c1 [Melatonin, reference compound] |  |  |  | 31.6 | 71.8 ± 2.81 | 37.4 | 72.9 ± 5.24
CC(=O)NCCc1c[nH]c2ccc(OC(=O)/C=C/c3ccc(Cl)c(Cl)c3)cc12 [Compound 12, 3-(2-acetamidoethyl)-1H-indol-5-yl (E)-3-(3,4-dichlorophenyl)acrylate] | 1.16 ± 0.1 | 1.43 ± 0.1 | 2.12 ± 0.2 | 25.3 | 70.1 ± 4.35 | 59.3 | 86.5 ± 3.04
CC(=O)NCCc1c[nH]c2ccc(OC(=O)/C=C/c3ccc(Br)cc3)cc12 [Compound 10, 3-(2-acetamidoethyl)-1H-indol-5-yl (E)-3-(4-bromophenyl)acrylate] | 1.53 ± 0.2 | 3.12 ± 0.5 | 13.3 ± 2.1 | 30.2 | 71.1 ± 2.61 | 27.6 | 72.4 ± 3.75
COc1cccc(/C=C/C(=O)Oc2ccc3[nH]cc(CCNC(C)=O)c3c2)c1 [Compound 5, 3-(2-acetamidoethyl)-1H-indol-5-yl (E)-3-(3-methoxyphenyl)acrylate] | 1.39 ± 0.1 | 1.63 ± 0.2 | 2.09 ± 0.2 | 27.1 | 70.2 ± 2.42 | 38.1 | 76 ± 3.31
COc1cc(/C=C/C(=O)Oc2ccc3[nH]cc(CCNC(C)=O)c3c2)ccc1O [Compound 8, 3-(2-acetamidoethyl)-1H-indol-5-yl (E)-3-(4-hydroxy-3-methoxyphenyl)acrylate] | 1.11 ± 0.1 | 1.83 ± 0.1 | 2.36 ± 0.1 | 37 | 74 ± 3.13 | 69.4 | 89.9 ± 1.86
